Among the test systems are DLD-1; DMS-114; HOP-18; KM-20L2; M19-MEL; XF498; BT-549; LXFL 529.
What all share (test): growth of human tumour cells (NCI), 48 h

31 molecules from ChEMBL document CHEMBL1201862, “PubChem BioAssay data set” (2004) can be followed below.

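Step 1: Grow cells in 96-well plates. Step 2: Expose to compound for 48 hours at 5 concentrations. Step 3: Interpolate endpoints linearly; if unreached, use highest concentration. At the GI50, growth is halved.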 Calls of active or inactive are those of the source. No stated cut-off is given here; in the data, active = GI50 up to about 1.1 µM and inactive = higher.

Turning to `CS(=O)(=O)OCCN(CCOS(C)(=O)=O)c1ccc(/C=N/N=c2/nc[nH]c3nc[nH]c23)cc1`, the GI50 is 26.8 µM (inactive) in the test on DLD-1; 10.9 µM (inactive) with DMS-114; 34.6 µM (inactive) in the test with HOP-18; 21.5 µM (inactive) in the test with KM-20L2; 20.5 µM (inactive) in the test on M19-MEL; 21.2 µM (inactive) with XF498.

`Cn1c(=O)c2c(nc3[nH]c(=O)c(Br)cn32)n(C)c1=O`: the GI50 in the test on BT-549 was > 100 µM (inactive).

On to `CC(C)C1CC(CO)(CNc2cc(Cl)nc(N)n2)C1` (stereo not drawn), for which, in the test with BT-549, the GI50 is 65.8 µM (inactive).

Regarding `CCN(CC)c1nnc(CCCCCCCCc2nnc(N(CC)CC)o2)o1`, in the test with BT-549, the GI50 is > 100 µM (inactive).

For the molecule `O=C(Nc1nc2ccccc2s1)c1cc([N+](=O)[O-])ccc1Cl`, the GI50 with BT-549 was 5.92 µM (inactive).

With `Oc1ccc(/C=C/c2cc(O)cc3c2C(c2cc(O)cc(O)c2)C(c2ccc(O)c(O)c2)O3)cc1` (stereo not drawn), in the test on BT-549, the GI50 was 23.7 µM (inactive).

On to `COC(=O)CCc1cc(OC)c2c(c1)[C@H](C(=O)OC)[C@@H](c1ccc(O)c(OC)c1)O2`, for which, in the test on BT-549, the GI50 was 44.8 µM (inactive).

In the case of `C1CSC(Sc2nc(SC3=NCCS3)nc(SC3=NCCS3)n2)=N1`, in the test on BT-549, the GI50 is > 100 µM (inactive).

As for `CC(C)(C)S(=O)OC12CC3CC(CC(C3)C1)C2` (stereo not drawn), the GI50 with DMS-114, with KM-20L2, in the test with LXFL 529, in the test on M19-MEL and with XF498 was > 100 µM (inactive) each time.

Regarding `CCCC(=O)NC1=C(NCC)C(=O)c2ccccc2C1=O`, the GI50 in the test on BT-549 was > 100 µM (inactive).

`CN(C)c1n2c3cc([N+](=O)[O-])ccc3[n+]3c(N(C)C)n4ccccc4c3c2c2cccc[n+]12.[O-][Cl+3]([O-])([O-])[O-].[O-][Cl+3]([O-])([O-])[O-]`: in the test on BT-549, the GI50 was > 100 µM (inactive).

In the case of `CCC1(N=[N+]=[N-])C(=O)Nc2cc(C)ccc2C1=O` (stereo not drawn), the GI50 with DLD-1 is > 100 µM (inactive); in the test on DMS-114, 38.1 µM (inactive); in the test on HOP-18, 32.6 µM (inactive); with KM-20L2, > 100 µM (inactive); with LXFL 529 it was 38 µM (inactive); with M19-MEL, 60.3 µM (inactive).

`NC(CNO)C(=O)O` (stereo not drawn): the GI50 in the test on BT-549 is > 100 µM (inactive).

In the case of `CC1=NNC(=S)NCCCN2CCN(CCCNC(=S)NN=C(C)C=NNC(=S)NCCCN3CCN(CCCNC(=S)NN=C1)CC3)CC2`, the GI50 with BT-549 was > 100 µM (inactive).

For the molecule `O=C(N/N=C(COc1ccc([N+](=O)[O-])cc1)\N=C\c1ccncc1)c1ccncc1`, in the test on BT-549, the GI50 is > 100 µM (inactive).

In the case of `COc1cc(OC)c2c(=O)c(OC)c(-c3ccc4c(c3)OCO4)oc2c1`, the GI50 in the test on BT-549 was 71.1 µM (inactive).

Take `NC1=NS(=O)(=O)Nc2nc(-c3cccs3)[nH]c21`: the GI50 with DLD-1, in the test with HOP-18, in the test on KM-20L2, in the test with LXFL 529 and in the test on M19-MEL was > 100 µM (inactive) in each case.

On to `CC(C)N1CCCOC(c2ccc([N+](=O)[O-])cc2)O1` (stereo not drawn), for which the GI50 in the test with BT-549 is > 100 µM (inactive).

Consider `Cc1cc(S(=O)(=O)Nc2nc(Nc3ccc(Cl)cc3)n[nH]2)c(S)cc1Cl`, for which, in the test with BT-549, the GI50 is > 100 µM (inactive).

Regarding `CN(c1cn(C2CC[C@@H](CO)O2)c(=O)[nH]c1=O)C1CCCCC1` (stereo partly drawn), the GI50 in the test with BT-549 was > 100 µM (inactive).

For the molecule `COc1cc([C@@H]2c3[nH]c4ccccc4c3C(Nc3ccc([N+](=O)[O-])cc3)[C@H]3COC(=O)N23)cc(OC)c1O` (stereo partly drawn), the GI50 with BT-549 is 0.611 µM (active).

As for `O=C(C#Cc1ccccc1)NC/C=C/c1ccccc1`, the GI50 in the test with DLD-1 is 43.1 µM (inactive); with DMS-114, 46.6 µM (inactive); with HOP-18, > 100 µM (inactive); in the test with KM-20L2, 44.9 µM (inactive); with LXFL 529 it was 38.2 µM (inactive); in the test with M19-MEL, 60.1 µM (inactive).

With `COC(=O)C1(C)CCCC2(C)c3cc(OC)ccc3C(=O)C(Br)C12` (stereo not drawn), in the test with BT-549, the GI50 was > 10 µM (inactive).

For `CNC(=O)C(C)Oc1ccc(OCC2CCCCC2)cc1` (stereo not drawn), the GI50 in the test with DLD-1 is > 100 µM (inactive); with DMS-114, 59.7 µM (inactive); in the test with HOP-18 it was 16.3 µM (inactive); in the test with LXFL 529, 77.4 µM (inactive); in the test on M19-MEL, > 100 µM (inactive).

As for `O=C(O)CC(NC(=O)Nc1ccc([N+](=O)[O-])cc1)C(=O)Nc1ccc([N+](=O)[O-])cc1` (stereo not drawn), the GI50 in the test with BT-549 is > 100 µM (inactive).

In the case of `Cc1ccc(C(=O)/C=C2\Nc3ccccc3S\C2=N\CS(=O)(=O)c2ccc(C)cc2)cc1`, the GI50 with BT-549 was > 10 µM (inactive).

Consider `COc1cc(C[S+]([O-])c2ccc(O)cc2)cc(OC)c1OC` (stereo not drawn), for which, in the test on BT-549, the GI50 is > 100 µM (inactive).

Regarding `O=C(c1ccccc1)c1ccc2[nH]c(-c3c(Cl)c(Cl)c(Cl)c(Cl)c3C(=O)N/N=C\C=C\c3ccccc3)nc2c1`, the GI50 with BT-549 is 47.1 µM (inactive).

Turning to `CC1=C(O)C(=O)c2ccccc2C1=O`, the GI50 in the test on BT-549 was 18.6 µM (inactive).

Turning to `C/N=C(/NC)N(C)c1nc(=[N+](C)C)ss1.[O-][Cl+3]([O-])([O-])[O-]`, the GI50 in the test on LXFL 529 was > 100 µM (inactive).

As for `COc1cccc2c1[C@]1(O)C(O)CCCC21` (stereo partly drawn), the GI50 in the test on DLD-1 was > 100 µM (inactive); in the test with DMS-114, > 100 µM (inactive); in the test on HOP-18 it was 90.4 µM (inactive); in the test on KM-20L2 it was > 100 µM (inactive); with LXFL 529 it was > 100 µM (inactive); in the test with M19-MEL, > 100 µM (inactive).
